These results are taken from patent US20250145665A1, “MACROCYCLIC PEPTIDES USEFUL AS MODULATORS OF TNF ALPHA” (Bristol-Myers Squibb Company, priority 2023, published 2025).

Starred links: 1 amine or outer side, 2 acyl side, 3 side chain; linkers in the order of their positions; H or OH if unused. Positions of bridges follow the written chain, without caps; N, C: chain ends. Non-standard residues stand in square brackets, D forms with d. Residues, ends and D or L forms follow the SMILES beside them. *: point of attachment. Bip(4'-NHCO-C6H4-3-CH2COOH) = N[C@@H](Cc1ccc(-c2ccc(NC(=O)c3cccc(CC(=O)O)c3)cc2)cc1)C(=O)O; Bip(4'-NHBz) = N[C@@H](Cc1ccc(-c2ccc(NC(=O)c3ccccc3)cc2)cc1)C(=O)O; X73 = O=C(O)CCCC(=O)Nc1ccc(-c2ccc(C[C@H](N[*:1])C(=O)[*:2])cc2)cc1; dArg(ω-(2S)-2,3-diOHpropyl) = N=C(NCCC[C@@H](N)C(=O)O)NC[C@H](O)CO; Bip(4'-NH) = O=C([C@H](Cc1ccc(-c2ccc(N[*:3])cc2)cc1)N[*:1])[*:2]; Indazole3carbonyl(1-CH2COOH) = O=C(O)Cn1nc(C(=O)*)c2ccccc21; Bip(4'-COOH) = N[C@@H](Cc1ccc(-c2ccc(C(=O)O)cc2)cc1)C(=O)O; Bip(4'-NHAc) = CC(=O)Nc1ccc(-c2ccc(C[C@H](N)C(=O)O)cc2)cc1; Indole3carbonyl(1-CH2COOH) = O=C(O)Cn1cc(C(=O)*)c2ccccc21; X35 = N=C(NCCC[C@@H](N[*:1])C(=O)[*:2])NCCc1ccc(N)cc1; dArg(ω-Bn) = N=C(NCCC[C@@H](N)C(=O)O)NCc1ccccc1; Ala(morpholin-4-yl) = N[C@@H](CN1CCOCC1)C(=O)O; Phe(3-CONH2) = NC(=O)c1cccc(C[C@H](N)C(=O)O)c1; Benzoyl(3-Ph) = O=C(c1cccc(-c2ccccc2)c1)*; Bip = N[C@@H](Cc1ccc(-c2ccccc2)cc1)C(=O)O; 2Pal = N[C@@H](Cc1ccccn1)C(=O)O; 3Pal = N[C@@H](Cc1cccnc1)C(=O)O; Tic = O=C(O)[C@@H]1Cc2ccccc2CN1; Cha = N[C@@H](CC1CCCCC1)C(=O)O; Tle = CC(C)(C)[C@H](N)C(=O)O; Sar = CNCC(=O)O Some results are limits rather than exact numbers.

The first assay deals with TNFα (Homo sapiens, UniProt P01375). Kind of assay: TNF-Induced HEK-Blue Assay. Type of assay: cell-based.
Chain of TNFα (P01375 77-233 limits assumed): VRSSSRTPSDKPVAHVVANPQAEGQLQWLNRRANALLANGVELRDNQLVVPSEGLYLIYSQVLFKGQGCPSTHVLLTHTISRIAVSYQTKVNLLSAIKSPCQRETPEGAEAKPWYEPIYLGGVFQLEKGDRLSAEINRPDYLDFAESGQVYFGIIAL
Details: not given
By IC50 is commonly meant the concentration at which inhibition is half-maximal. The compound `CC(C)C[C@@H]1NC(=O)[C@H](CCCNC(=N)N)NC(=O)[C@H](C(C)C)NC(=O)[C@@H]2CCCN2C(=O)[C@H](C(C)C)NC(=O)[C@@H](CCCNC(=N)NCCc2ccc(N)cc2)NC(=O)[C@H](CC(=O)O)NC(=O)[C@@H]2CCCN2C(=O)CN(C)C(=O)[C@H](Cc2ccc(-c3ccc(NC(=O)c4nn(CC(=O)O)c5ccccc45)cc3)cc2)NC(=O)[C@H](Cc2ccc(-c3ccccc3)cc2)NC(=O)[C@H](CN2CCOCC2)NC(=O)CSC[C@@H](C(=O)NCC(N)=O)NC1=O` [Example 407] ({CH2CO}-[Ala(morpholin-4-yl)][Bip][Bip(4'-NH)](Indazole3carbonyl(1-CH2COOH))[Sar]PD[X35]VPVRLCG-NH2; thioether N-13) registered an IC50 of 0.05 to 0.2 µM.

`CC(C)C[C@@H]1NC(=O)[C@H](Cc2cccc(C(N)=O)c2)NC(=O)[C@H](C(C)C)NC(=O)[C@@H]2CCCN2C(=O)[C@H](C(C)C)NC(=O)[C@@H](CCCNC(=N)NCc2ccccc2)NC(=O)[C@H](CC(=O)O)NC(=O)[C@H](Cc2ccc(O)cc2)NC(=O)CN(C)C(=O)[C@H](Cc2ccc(-c3ccc(NC(=O)c4cn(CC(=O)O)c5ccccc45)cc3)cc2)NC(=O)[C@H](Cc2ccc(-c3ccccc3)cc2)NC(=O)[C@H](CN2CCOCC2)NC(=O)CSC[C@@H](C(=O)NCC(N)=O)NC1=O` [Example 601] ({CH2CO}-[Ala(morpholin-4-yl)][Bip][Bip(4'-NH)](Indole3carbonyl(1-CH2COOH))[Sar]YD[dArg(ω-Bn)]VPV[Phe(3-CONH2)]LCG-NH2; thioether N-13) registered an IC50 below 0.05 µM.

`CC[C@H](C)[C@@H]1NC(=O)[C@@H]2CCCN2C(=O)[C@H]([C@@H](C)CC)NC(=O)[C@@H](CCCNC(=N)N)NC(=O)[C@H](CC(=O)O)NC(=O)[C@H](Cc2ccccn2)NC(=O)CN(C)C(=O)[C@H](Cc2ccc(-c3ccc(NC(=O)c4nn(CC(=O)O)c5ccccc45)cc3)cc2)NC(=O)[C@H](Cc2ccc(-c3ccccc3)cc2)NC(=O)[C@H](C(C)(C)C)NC(=O)CSC[C@@H](C(=O)NCC(N)=O)NC(=O)[C@H](CC(C)C)NC(=O)[C@H](Cc2cccc(C(N)=O)c2)NC1=O` [Example 356] ({CH2CO}-[Tle][Bip][Bip(4'-NH)](Indazole3carbonyl(1-CH2COOH))[Sar][2Pal]D[dR]IPI[Phe(3-CONH2)]LCG-NH2; thioether N-13) returned an IC50 below 0.05 µM.

Compound `CC[C@H](C)[C@@H]1NC(=O)[C@@H](CCCNC(=N)N)NC(=O)[C@H](CC(=O)O)NC(=O)[C@H](Cc2cnc[nH]2)NC(=O)CN(C)C(=O)[C@H](Cc2ccc(-c3ccc(NC(=O)c4ccccc4)cc3)cc2)NC(=O)[C@H](Cc2ccc(-c3ccc(C(=O)O)cc3)cc2)NC(=O)[C@H](CC2CCCCC2)NC(=O)CSC[C@@H](C(=O)NCC(N)=O)NC(=O)[C@H](CC(C)C)NC(=O)[C@H](Cc2cnc[nH]2)NC(=O)[C@H](C(C)C)NC(=O)[C@@H]2Cc3ccccc3CN2C1=O` [Example 370] ({CH2CO}-[Cha][Bip(4'-COOH)][Bip(4'-NHBz)][Sar]HD[dR]I[Tic]VHLCG-NH2; thioether N-13) gave an IC50 below 0.05 µM.

Still in this assay, the particulars now being: HEK-Blue-CD40L cells, NF-kB-driven secreted alkaline phosphatase reporter; TNFα 0.5 ng/ml; 18 h; read-out: TNF induced HEK-Blue assay IC50 value.
Take `CC[C@H](C)[C@@H]1NC(=O)[C@@H](CCCNC(=N)N)NC(=O)[C@H](CC(=O)O)NC(=O)[C@H](Cc2cnc[nH]2)NC(=O)CN(C)C(=O)[C@H](Cc2ccc(-c3ccc(NC(=O)c4cccc(-c5ccccc5)c4)cc3)cc2)NC(=O)[C@H](Cc2ccc(-c3ccccc3)cc2)NC(=O)[C@H](CC2CCCCC2)NC(=O)CSC[C@@H](C(=O)NCC(N)=O)NC(=O)[C@H](CC(C)C)NC(=O)[C@H](Cc2cnc[nH]2)NC(=O)[C@H](C(C)C)NC(=O)[C@@H]2CCCN2C1=O` [Example 349] ({CH2CO}-[Cha][Bip][Bip(4'-NH)](Benzoyl(3-Ph))[Sar]HD[dR]IPVHLCG-NH2; thioether N-13): the IC50 was in the range of 0.2 to 2 µM.

As to `CC[C@H](C)[C@@H]1NC(=O)[C@@H](CCCNC(=N)N)NC(=O)[C@H](CC(=O)O)NC(=O)[C@H](Cc2cnc[nH]2)NC(=O)CN(C)C(=O)[C@H](Cc2ccc(-c3ccc(NC(=O)c4cccc(CC(=O)O)c4)cc3)cc2)NC(=O)[C@H](Cc2ccc(-c3ccc(C(=O)O)cc3)cc2)NC(=O)[C@H](C(C)(C)C)NC(=O)CSC[C@@H](C(=O)NCC(N)=O)NC(=O)[C@H](CC(C)C)NC(=O)[C@H](Cc2cnc[nH]2)NC(=O)[C@H](C(C)C)NC(=O)[C@@H]2CCCN2C1=O` [Example 482] ({CH2CO}-[Tle][Bip(4'-COOH)][Bip(4'-NHCO-C6H4-3-CH2COOH)][Sar]HD[dR]IPVHLCG-NH2; thioether N-13), the IC50 is below 0.05 µM.

Regarding `CC(C)C[C@@H]1NC(=O)[C@H](CCCNC(=N)N)NC(=O)[C@H](C(C)C)NC(=O)[C@@H]2CCCN2C(=O)[C@H](Cc2cccnc2)NC(=O)[C@H](CCCNC(=N)N)NC(=O)[C@H](CC(=O)O)NC(=O)[C@@H]2CCCN2C(=O)CN(C)C(=O)[C@H](Cc2ccc(-c3ccccc3)cc2)NC(=O)[C@H](Cc2ccc(-c3ccccc3)cc2)NC(=O)[C@H](CN2CCOCC2)NC(=O)CSC[C@@H](C(=O)NCC(N)=O)NC1=O` [Example 54] ({CH2CO}-[Ala(morpholin-4-yl)][Bip][Bip][Sar]PDR[3Pal]PVRLCG-NH2; thioether N-13), the IC50 is 0.05 to 0.2 µM.

In the case of `CC[C@H](C)[C@@H]1NC(=O)[C@@H](CCCNC(=N)N)NC(=O)[C@H](CC(=O)O)NC(=O)[C@H](Cc2cnc[nH]2)NC(=O)CN(C)C(=O)[C@H](Cc2ccc(-c3ccc(NC(=O)CCCC(=O)O)cc3)cc2)NC(=O)[C@H](Cc2ccc(-c3ccccc3)cc2)NC(=O)[C@H](CC2CCCCC2)NC(=O)CSC[C@@H](C(=O)NCC(N)=O)NC(=O)[C@H](CC(C)C)NC(=O)[C@H](Cc2cnc[nH]2)NC(=O)[C@H](C(C)C)NC(=O)[C@@H]2CCCN2C1=O` [Example 324] ({CH2CO}-[Cha][Bip][X73][Sar]HD[dR]IPVHLCG-NH2; thioether N-13), the IC50 lay in the range of 0.05 to 0.2 µM.

As to `CC(=O)Nc1ccc(-c2ccc(C[C@@H]3NC(=O)[C@H](Cc4ccc(-c5ccc(C(=O)O)cc5)cc4)NC(=O)[C@H](CN4CCOCC4)NC(=O)CSC[C@@H](C(=O)NCC(N)=O)NC(=O)[C@H](CC(C)C)NC(=O)[C@H](Cc4cccc(C(N)=O)c4)NC(=O)[C@H](C(C)C)NC(=O)[C@@H]4CCCN4C(=O)[C@H](C(C)C)NC(=O)[C@@H](CCCNC(=N)N)NC(=O)[C@H](CC(=O)O)NC(=O)[C@H](Cc4ccccc4)NC(=O)CN(C)C3=O)cc2)cc1` [Example 458] ({CH2CO}-[Ala(morpholin-4-yl)][Bip(4'-COOH)][Bip(4'-NHAc)][Sar]FD[dR]VPV[Phe(3-CONH2)]LCG-NH2; thioether N-13), the IC50 was below 0.05 µM.

Consider `CC(C)C[C@@H]1NC(=O)[C@H](CCCNC(=N)N)NC(=O)[C@H](C(C)C)NC(=O)[C@@H]2CCCN2C(=O)[C@H](C(C)C)NC(=O)[C@@H](CCCNC(=N)NC[C@H](O)CO)NC(=O)[C@H](CC(=O)O)NC(=O)[C@@H]2CCCN2C(=O)CN(C)C(=O)[C@H](Cc2ccc(-c3ccc(NC(=O)c4cccc(CC(=O)O)c4)cc3)cc2)NC(=O)[C@H](Cc2ccc(-c3ccccc3)cc2)NC(=O)[C@H](CN2CCOCC2)NC(=O)CSC[C@@H](C(=O)NCC(N)=O)NC1=O` [Example 537] ({CH2CO}-[Ala(morpholin-4-yl)][Bip][Bip(4'-NHCO-C6H4-3-CH2COOH)][Sar]PD[dArg(ω-(2S)-2,3-diOHpropyl)]VPVRLCG-NH2; thioether N-13), for which the IC50 is 0.05 to 0.2 µM.
